Patent EP0674651B1, “SUBSTITUTED 6-AZAANDROSTENONES” (priority 1992, dated 1994)
Read-outs that look alike come from different tables or passages of the source.

Key:
[1] = biological target: T1, human type 1 5α-reductase (Homo sapiens, UniProt P18405); assay: 5α-reductase in vitro inhibitory activity, human type 1
T1 sequence (P18405 1-259): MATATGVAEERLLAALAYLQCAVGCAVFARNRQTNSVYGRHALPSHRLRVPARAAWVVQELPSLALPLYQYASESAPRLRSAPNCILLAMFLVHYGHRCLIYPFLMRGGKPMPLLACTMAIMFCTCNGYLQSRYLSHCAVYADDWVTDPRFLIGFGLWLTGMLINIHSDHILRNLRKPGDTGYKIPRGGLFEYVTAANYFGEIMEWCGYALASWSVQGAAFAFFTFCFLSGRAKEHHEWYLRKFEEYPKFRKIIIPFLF
Method: (§1) Microsomes were prepared by homogenization of the tissue or cells, followed by differential centrifugation of the homogenate. […] Corresponding incubations were carried out with no test compound as a control study.
For type 2 IC50 measurements, assay components except testosterone were preincubated for 20 minutes at pH 6.0, and following the addition of 8nM testosterone the assays were allowed to proceed for 20-40 minutes. The percentage of conversion of testosterone to DHT in the presence of test compounds compared to the corresponding conversion in the control study was estimated using high pressure liquid chromatography (HPLC) with radiochemical detection.

[2] = biological target: T2, human type 2 5α-reductase (Homo sapiens, UniProt P31213); assay: 5α-reductase in vitro inhibitory activity, human type 2
T2 sequence (P31213 1-254): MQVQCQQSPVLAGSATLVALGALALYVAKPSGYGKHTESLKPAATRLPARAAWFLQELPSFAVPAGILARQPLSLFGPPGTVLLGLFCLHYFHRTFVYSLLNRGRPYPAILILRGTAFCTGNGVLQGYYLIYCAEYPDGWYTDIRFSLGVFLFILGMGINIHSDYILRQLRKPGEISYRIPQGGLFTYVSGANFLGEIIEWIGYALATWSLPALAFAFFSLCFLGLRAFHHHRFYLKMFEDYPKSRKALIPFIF

[3] = biological target: Rat Prostatic 5α-reductase; assay: 5α-reductase in vitro inhibitory activity, rat prostatic; details: read-out: IC50 Rat Prostatic; microsomes derived from prostate tissue from the rat
Method: as §1
The percentage of conversion of testosterone to DHT in the presence of test compounds compared to the corresponding conversion in the control study was estimated using high pressure liquid chromatography (HPLC) with radiochemical detection.

[4] = read-out: IC50 Human Type 1, microsomes of recombinant baculovirus infected SF9 cells, preincubated 10 minutes at pH 7.0, 100nM testosterone, 1 mM NADPH
[5] = read-out: IC50 Human Type 2, microsomes, preincubated 20 minutes at pH 6.0, 8nM testosterone, 1 mM NADPH

| Compound | IC50 [1] | IC50 [2] | IC50 [3] | IC50 [1, 4] | IC50 [2, 5] |
| --- | --- | --- | --- | --- | --- |
| C[C@]12CC[C@H]3[C@@H](CNC4=CC(=O)CC[C@@]43C)[C@@H]1CC[C@@H]2C(=O)Nc1cc(C(F)(F)F)ccc1Cl [Compound 44, 17β-N-(2-Chloro-5-trifluoromethyl)-phenyl-carbamoyl-6-azaandrost-4-en-3-one] | 10 to 100 nM | < 10 nM | > 100 nM |  |  |
| Cc1ccc(CCNC(=O)C2CCC3C4CNC5=CC(=O)CCC5(C)C4CCC23C)cc1 (stereo not drawn) [Compound 12, 17β-N-(4-Methyl)phenethyl-carbamoyl-6-azaandrost-4-en-3-one] | 10 to 100 nM | < 10 nM | < 10 nM |  |  |
| 17β-N-2-(3-N-Methylpyrrole)ethyl-carbamoyl-6-azaandrost-4-en-3-one [Compound 29] |  |  | 10 to 100 nM | > 100 nM | 10 to 100 nM |
| C[C@]12CC[C@H]3[C@@H](CNC4=CC(=O)CC[C@@]43C)[C@@H]1CC[C@@H]2C(=O)NC(Cc1ccccc1)c1ccccc1 (stereo partly drawn) [Compound 17, 17β-N-(α-Phenyl)phenethyl-carbamoyl-6-azaandrost-4-en-3-one] | 10 to 100 nM | < 10 nM | < 10 nM |  |  |
| CC(C)c1cccc(C(C)C)c1NC(=O)[C@H]1CC[C@H]2[C@@H]3CNC4=CC(=O)C=C[C@]4(C)[C@H]3CC[C@]12C [Compound 93, 17β-N-(2,6-Di-i-propyl)phenyl-carbamoyl-6-azaandrost-1,4-dien-3-one] | 10 to 100 nM | < 10 nM | > 100 nM |  |  |
| C[C@]12CC[C@H]3[C@@H](CNC4=CC(=O)CC[C@@]43C)[C@@H]1CC[C@@H]2C(=O)NCC1CCCCC1 [Compound 31, 17β-methylenecyclohexyl-carbamoyl-6-azaandrost-4-en-3-one] | 10 to 100 nM | < 10 nM | < 10 nM |  |  |
| CC(C)c1cc(Br)c(NC(=O)[C@H]2CC[C@H]3[C@@H]4CNC5=CC(=O)CC[C@]5(C)[C@H]4CC[C@]23C)c(Br)c1 [Compound 49, 17β-N-(2,6-Dibromo-4-isopropyl)phenyl-carbamoyl-6-azaandrost-4-en-3-one] | < 10 nM | < 10 nM | < 10 nM |  |  |
| CC(Cc1ccccc1)NC(=O)C1CCC2C3CNC4=CC(=O)CCC4(C)C3CCC12C (stereo not drawn) [Compound 13, 17β-N-(α-Methyl)phenethyl-carbamoyl-6-azaandrost-4-en-3-one] | 10 to 100 nM | < 10 nM | < 10 nM |  |  |
| C[C@]12CC[C@H]3[C@@H](CNC4=CC(=O)CC[C@@]43C)[C@@H]1CC[C@@H]2C(=O)NCc1ccco1 [Compound 19, 17β-N-(2-Furanyl)methyl-carbamoyl-6-azaandrost-4-en-3-one] | > 100 nM | 10 to 100 nM | 10 to 100 nM |  |  |
| C[C@]12CC[C@H]3[C@@H](CNC4=CC(=O)CC[C@@]43C)[C@@H]1CC[C@@H]2COC(=O)C12CC3CC(CC(C3)C1)C2 [Compound 38, 17β-Hydroxymethyl-(1-adamantylcarboxylate)-6-azaandrost-4-en-3-one] | 10 to 100 nM | < 10 nM | > 100 nM |  |  |
| CC(C)(CO)NC(=O)[C@H]1CC[C@H]2[C@@H]3CNC4=CC(=O)CC[C@]4(C)[C@H]3CC[C@]12C [Compound 21, 17β-N-(1,1-Dimethyl)-2-hydroxyethyl-carbamoyl-6-azaandrost-4-en-3-one] | > 100 nM | 10 to 100 nM | > 100 nM |  |  |
| CC(C)(C)c1ccc(C(C)(C)C)c(NC(=O)C2CCC3C4CNC5=CC(=O)CCC5(C)C4CCC23C)c1 (stereo not drawn) [Compound 10, 17β-N-(2,5-Di-t-butyl)phenyl-carbamoyl-6-azaandrost-4-en-3-one] | < 10 nM | < 10 nM | 10 to 100 nM |  |  |
| C[C@]12CC[C@H]3[C@@H](CNC4=CC(=O)CC[C@@]43C)[C@@H]1CC[C@@H]2C(=O)NC(C1CCCCC1)C1CCCCC1 [Compound 34, 17β-N-(Dicyclohexyl)methyl-carbamoyl-6-azaandrost-4-en-3-one] | 10 to 100 nM | < 10 nM | < 10 nM |  |  |
| C[C@]12CC[C@H]3[C@@H](CNC4=CC(=O)CC[C@@]43C)[C@@H]1CC[C@@H]2C(=O)NC(c1ccc(F)cc1)c1cccs1 (stereo partly drawn) [Compound 18, 17β-N-(4-Fluorophenyl)(2-thiophene)methyl-carbamoyl-6-azaandrost-4-en-3-one] | 10 to 100 nM | < 10 nM | < 10 nM |  |  |
| C[C@]12CC[C@H]3[C@@H](CNC4=CC(=O)CC[C@@]43C)[C@@H]1CC[C@@H]2C(=O)Nc1ccc2c(c1)OCCO2 [Compound 6, 17β-N-4-Benzodioxan-carbamoyl-6-azaandrost-4-en-3-one] |  |  | 10 to 100 nM | > 100 nM | 10 to 100 nM |
| C[C@]12CC[C@H]3[C@@H](CNC4=CC(=O)CC[C@@]43C)[C@@H]1CC[C@@H]2C(=O)NCCC(c1ccccc1)c1ccccc1 [Compound 16, 17β-N-(3,3-Diphenyl)propyl-carbamoyl-6-azaandrost-4-en-3-one] | 10 to 100 nM | < 10 nM | < 10 nM |  |  |
| COc1ccc(C2(NC(=O)[C@H]3CC[C@H]4[C@@H]5CNC6=CC(=O)CC[C@]6(C)[C@H]5CC[C@]34C)CCCC2)cc1 [Compound 115, 17β-N-1-(4-Methoxyphenyl)cyclopentyl-carbamoyl-6-azaandrost-4-en-3-one] | < 10 nM | < 10 nM |  |  |  |
| CC(C)(C)c1ccc(Br)cc1NC(=O)[C@H]1CC[C@H]2[C@@H]3CNC4=CC(=O)CC[C@]4(C)[C@H]3CC[C@]12C [Compound 74, 17β-N-(5-Bromo-2-t-butyl)phenyl-carbamoyl-6-azaandrost-4-en-3-one] | < 10 nM | < 10 nM |  |  |  |
| CC(C)NC(=O)N(C(=O)[C@H]1CC[C@H]2[C@@H]3CNC4=CC(=O)CC[C@]4(C)[C@H]3CC[C@]12C)C(C)C [Compound 95, 17β-(N-i-Propyl-N-(N-i-propylcarbamoyl))-carbamoyl-6-azaandrost-4-en-3-one] | > 100 nM | 10 to 100 nM |  |  |  |
| CC(NC(=O)[C@H]1CC[C@H]2[C@@H]3CNC4=CC(=O)CC[C@]4(C)[C@H]3CC[C@]12C)(c1ccc(Cl)cc1)c1ccc(Cl)cc1 [Compound 66, 17β-N-(1,1-Di-4-chlorophenyl)ethyl-carbamoyl-6-azaandrost-4-en-3-one] | > 100 nM | < 10 nM |  |  |  |
| CC(C)(C)c1ccc(-c2ccc(C(C)(C)C)c(NC(=O)[C@H]3CC[C@H]4[C@@H]5CNC6=CC(=O)CC[C@]6(C)[C@H]5CC[C@]34C)c2)cc1 [Compound 147, 17β-N-(2-t-Butyl-5-(4-t-butyl)phenyl)phenyl-carbamoyl-6-azaandrost-4-en-3-one] | < 10 nM | < 10 nM |  |  |  |
| C[C@]12CC[C@H]3[C@@H](CNC4=CC(=O)CC[C@@]43C)[C@@H]1CC[C@@H]2CNC(=O)NC12CC3CC(CC(C3)C1)C2 [Compound 98, 17β-Aminomethyl-(1-adamantylurea)-6-azaandrost-4-en-3-one] | < 10 nM | < 10 nM |  |  |  |
| C[C@]12CC[C@H]3[C@@H](CNC4=CC(=O)CC[C@@]43C)[C@@H]1CC[C@@H]2C(=O)c1ccc(F)cc1F [Compound 26, 17β-(1-Oxo-1-(2,4-difluorophenyl)methyl)-6-azaandrost-4-en-3-one] | 10 to 100 nM | < 10 nM |  |  |  |
| CC(C)(C)c1ccc(C2(NC(=O)[C@H]3CC[C@H]4[C@@H]5CNC6=CC(=O)CC[C@]6(C)[C@H]5CC[C@]34C)CCCCCC2)cc1 [Compound 136, 17β-N-1-(4-t-Butylphenyl)cycloheptyl-carbamoyl-6-azaandrost-4-en-3-one] | < 10 nM | < 10 nM |  |  |  |
| C[C@]12CC[C@H]3[C@@H](CNC4=CC(=O)CC[C@@]43C)[C@@H]1CC[C@@H]2C(=O)NCCSc1ccccc1 [Compound 23, 17β-N-2-(Phenylthio)ethyl-carbamoyl-6-azaandrost-4-en-3-one] | 10 to 100 nM | < 10 nM |  |  |  |
| CC1=C2NC[C@H]3[C@@H]4CC[C@H](C(=O)Nc5c(C(C)C)cccc5C(C)C)[C@@]4(C)CC[C@@H]3[C@@]2(C)C=CC1=O [Compound 94, 17β-N-(2,6-Di-i-propyl)phenyl-carbamoyl-6-azaandrost-4-methyl-1,4-dien-3-one] | 10 to 100 nM | < 10 nM |  |  |  |
| CCC(C)(C)c1ccc(Oc2ccccc2)c(NC(=O)[C@H]2CC[C@H]3[C@@H]4CNC5=CC(=O)CC[C@]5(C)[C@H]4CC[C@]23C)c1 [Compound 83, 17β-N-(2-(O-Phenyl)-5-(1,1-dimethyl)propyl)phenyl-carbamoyl-6-azaandrost-4-en-3-one] | 10 to 100 nM | < 10 nM |  |  |  |
| C[C@]12CC[C@H]3[C@@H](CNC4=CC(=O)CC[C@@]43C)[C@@H]1CC[C@@H]2C(=O)Nc1c(Br)cc(Cl)cc1Br [Compound 69, 17β-N-(2,6-Dibromo-4-chloro)phenyl-carbamoyl-6-azaandrost-4-en-3-one] | 10 to 100 nM | < 10 nM |  |  |  |
| CC(C)(C)c1ccc(NC(=O)[C@H]2CC[C@H]3[C@@H]4CNC5=CC(=O)CC[C@]5(C)[C@H]4CC[C@]23C)cc1[N+](=O)[O-] [Compound 92, 17β-N-(3-Nitro-4-t-butyl)phenyl-carbamoyl-6-azaandrost-4-en-3-one] | 10 to 100 nM | < 10 nM |  |  |  |
